Target: P. falciparum apicoplast DNA polymerase (Pf-apPOL) (Plasmodium falciparum, UniProt Q8ILY1)
Test: Fluorescence-based high-throughput DNA polymerase assay (molecular beacon), primary screen and dose-response
Format: biochemical
Summary of the method: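 Single-point screening used 10 µM compound with 20 nM polymerase, 20 nM hairpin substrate and 6 µM dNTPs for 90 min at 25 °C. Confirmatory titrations (2.5–80 µM) followed fluorescence at three times, and IC50 was derived from a fit including a cooperativity term n.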

[1] = supplemental file 2, sheet IC50 nontoxic compounds; Pf-apPOL

Sequence of P. falciparum apicoplast DNA polymerase (Pf-apPOL) (Q8ILY1 entry or part of it): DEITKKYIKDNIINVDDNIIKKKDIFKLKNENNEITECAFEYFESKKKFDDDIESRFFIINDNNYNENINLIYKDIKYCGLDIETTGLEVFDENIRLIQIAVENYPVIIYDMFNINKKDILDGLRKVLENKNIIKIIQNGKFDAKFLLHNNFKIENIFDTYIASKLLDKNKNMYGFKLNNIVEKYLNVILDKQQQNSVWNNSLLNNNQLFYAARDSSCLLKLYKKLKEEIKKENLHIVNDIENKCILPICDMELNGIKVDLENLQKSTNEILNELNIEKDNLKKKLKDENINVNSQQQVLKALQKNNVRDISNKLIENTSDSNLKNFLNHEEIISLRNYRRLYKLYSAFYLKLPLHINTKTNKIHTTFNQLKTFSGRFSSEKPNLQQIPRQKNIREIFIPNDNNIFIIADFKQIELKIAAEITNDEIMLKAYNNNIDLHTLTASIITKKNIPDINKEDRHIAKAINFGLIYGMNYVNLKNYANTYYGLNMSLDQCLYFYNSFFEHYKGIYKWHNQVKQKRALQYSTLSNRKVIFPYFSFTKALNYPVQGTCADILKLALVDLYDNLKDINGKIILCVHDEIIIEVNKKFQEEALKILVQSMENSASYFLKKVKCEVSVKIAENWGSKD

NC(=O)c1cc[n+](CC2=C(C(=O)[O-])N3C(=O)[C@@H](NC(=O)[C@@H](c4ccccc4)S(=O)(=O)[O-])[C@H]3SC2)cc1.[Na+] [Molecule 9, O=C([C@H](S(=O)(=O)[O-])c1ccccc1)N[C@@H]1C(=O)N2[C@@H]1SCC(=C2C(=O)[O-])C[n+]1ccc(cc1)C(=O)N.[Na+]]
DNA Pol ('DNA Pol' of the 186 hits list (primary screen result); unit not given; 90 min, 10 µM): 104
% inhibition Apo pol 10' (DRC-1; 10'; concentration 2.5): 39.849%
% inhibition Apo pol 10' (DRC-1; 10'; concentration 5): 54.1804%
% inhibition Apo pol 10' (DRC-1; 10'; concentration 10): 77.8206%
% inhibition Apo pol 10' (DRC-1; 10'; concentration 20): 94.0018%
% inhibition Apo pol 10' (DRC-1; 10'; concentration 40): 97.9008%
% inhibition Apo pol 10' (DRC-1; 10'; concentration 80): 96.5672%
% inhibition Apol 90' (DRC-1; 90'; concentration 2.5): 3.442%
% inhibition Apol 90' (DRC-1; 90'; concentration 5): 17.2714%
% inhibition Apol 90' (DRC-1; 90'; concentration 10): 53.7945%
% inhibition Apol 90' (DRC-1; 90'; concentration 20): 88.3864%
% inhibition Apol 90' (DRC-1; 90'; concentration 40): 97.5%
% inhibition Apol 90' (DRC-1; 90'; concentration 80): 97.5161%
% inhibition apPOL 180' (DRC-1; 180'; concentration 2.5): -2.063%
% inhibition apPOL 180' (DRC-1; 180'; concentration 5): 5.595%
% inhibition apPOL 180' (DRC-1; 180'; concentration 10): 40.8592%
% inhibition apPOL 180' (DRC-1; 180'; concentration 20): 84.7929%
% inhibition apPOL 180' (DRC-1; 180'; concentration 40): 96.7618%
% inhibition apPOL 180' (DRC-1; 180'; concentration 80): 97.7754%
% inhibition Apo pol 5' (DRC-2, 5', concentration 20 (unit not given)): 56%
% inhibition Apol 40' (DRC-2, 40', concentration 40 (unit not given)): 76%
% inhibition Apol 40' (DRC-2, 40', concentration 80 (unit not given)): 76%
% inhibition apPOL 180' (DRC-2, 180', concentration 40 (unit not given)): 83%
% inhibition apPOL 180' (DRC-2, 180', concentration 80 (unit not given)): 83%
% inhibition Apo pol 5' (DRC-2; 5'; concentration 2.5): 21%
% inhibition Apo pol 5' (DRC-2; 5'; concentration 5): 28%
% inhibition Apo pol 5' (DRC-2; 5'; concentration 10): 47%
% inhibition Apo pol 5' (DRC-2; 5'; concentration 20): 56%
% inhibition Apo pol 5' (DRC-2; 5'; concentration 40): 58%
% inhibition Apo pol 5' (DRC-2; 5'; concentration 80): 56%
% inhibition Apo pol 5' (DRC-2; 5'; concentration 80 (unit not given)): 56%
% inhibition Apol 40' (DRC-2; 40'; concentration 2.5): -0.192%
% inhibition Apol 40' (DRC-2; 40'; concentration 5): 15%
% inhibition Apol 40' (DRC-2; 40'; concentration 10): 49%
% inhibition Apol 40' (DRC-2; 40'; concentration 20): 71%
% inhibition Apol 40' (DRC-2; 40'; concentration 40): 76%
% inhibition Apol 40' (DRC-2; 40'; concentration 80): 76%
% inhibition ApPOL 90' (DRC-2; 90'; concentration 2.5): -4%
% inhibition ApPOL 90' (DRC-2; 90'; concentration 5): 8%
% inhibition ApPOL 90' (DRC-2; 90'; concentration 10): 46%
% inhibition ApPOL 90' (DRC-2; 90'; concentration 20): 74%
% inhibition ApPOL 90' (DRC-2; 90'; concentration 40): 81%
% inhibition ApPOL 90' (DRC-2; 90'; concentration 80): 80%
% inhibition apPOL 180' (DRC-2; 180'; concentration 2.5): 1.56%
% inhibition apPOL 180' (DRC-2; 180'; concentration 5): 9%
% inhibition apPOL 180' (DRC-2; 180'; concentration 10): 41%
% inhibition apPOL 180' (DRC-2; 180'; concentration 20): 75%
% inhibition apPOL 180' (DRC-2; 180'; concentration 40): 83%
% inhibition apPOL 180' (DRC-2; 180'; concentration 80): 83%
DNA Pol (primary screen value of the library well; unit not given; 90 min, 10 µM): 104

CN1CC(=Cc2ccco2)C(=O)C(=Cc2ccco2)C1 [Molecule 65]
IC50 [1]: 7.51 µM

O=C1CSC2=NC3=C(CCc4ccccc43)C(c3cccs3)N12 (stereo not drawn) [Molecule 59]
IC50 [1]: 14.7 µM

O=[N+]([O-])c1ccc(SCc2ccco2)c2cccnc12 [KU0034480]
% inhibition Apo pol 10' (DRC-1; concentration 2.5; 10'): 15.1764%
% inhibition Apol 90' (DRC-1; concentration 2.5; 90'): 4.148%
% inhibition apPOL 180' (DRC-1; concentration 2.5; 180'): -3.317%
% inhibition Apo pol 10' (DRC-1; concentration 5; 10'): 32.9023%
% inhibition Apol 90' (DRC-1; concentration 5; 90'): 16.0357%
% inhibition apPOL 180' (DRC-1; concentration 5; 180'): 6.603%
% inhibition Apo pol 10' (DRC-1; concentration 10; 10'): 55.3292%
% inhibition Apol 90' (DRC-1; concentration 10; 90'): 36.0729%
% inhibition apPOL 180' (DRC-1; concentration 10; 180'): 23.8373%
% inhibition Apo pol 10' (DRC-1; concentration 20; 10'): 73.1419%
% inhibition Apol 90' (DRC-1; concentration 20; 90'): 49.2841%
% inhibition apPOL 180' (DRC-1; concentration 20; 180'): 26.1748%
% inhibition Apo pol 10' (DRC-1; concentration 40; 10'): 89.7276%
% inhibition Apol 90' (DRC-1; concentration 40; 90'): 77.8644%
% inhibition apPOL 180' (DRC-1; concentration 40; 180'): 65.2989%
% inhibition Apo pol 10' (DRC-1; concentration 80 (unit not given); 10'): 92.5619%
% inhibition Apol 90' (DRC-1; concentration 80; 90'): 91.6594%
% inhibition apPOL 180' (DRC-1; concentration 80; 180'): 89.7624%
% inhibition Apo pol 5' (DRC-2; 5'; concentration 2.5): 33%
% inhibition Apo pol 5' (DRC-2; 5'; concentration 5): 33%
% inhibition Apol 40' (DRC-2; 40'; concentration 5): 33%
% inhibition ApPOL 90' (DRC-2; 90'; concentration 40): 75%
% inhibition apPOL 180' (DRC-2; 180'; concentration 40): 75%
% inhibition apPOL 180' (DRC-2; 180'; concentration 80): 75%
% inhibition Apo pol 5' (DRC-2; concentration 2.5; 5'): 33%
% inhibition Apol 40' (DRC-2; concentration 2.5; 40'): 40%
% inhibition ApPOL 90' (DRC-2; concentration 2.5; 90'): 36%
% inhibition apPOL 180' (DRC-2; concentration 2.5; 180'): 26%
% inhibition Apo pol 5' (DRC-2; concentration 5; 5'): 33%
% inhibition Apol 40' (DRC-2; concentration 5; 40'): 33%
% inhibition ApPOL 90' (DRC-2; concentration 5; 90'): 29%
% inhibition apPOL 180' (DRC-2; concentration 5; 180'): 16%
% inhibition Apo pol 5' (DRC-2; concentration 10; 5'): 38%
% inhibition Apol 40' (DRC-2; concentration 10; 40'): 39%
% inhibition ApPOL 90' (DRC-2; concentration 10; 90'): 35%
% inhibition apPOL 180' (DRC-2; concentration 10; 180'): 22%
% inhibition Apo pol 5' (DRC-2; concentration 20; 5'): 47%
% inhibition Apol 40' (DRC-2; concentration 20; 40'): 63%
% inhibition ApPOL 90' (DRC-2; concentration 20; 90'): 62%
% inhibition apPOL 180' (DRC-2; concentration 20; 180'): 53%
% inhibition Apo pol 5' (DRC-2; concentration 40; 5'): 48%
% inhibition Apol 40' (DRC-2; concentration 40; 40'): 72%
% inhibition ApPOL 90' (DRC-2; concentration 40; 90'): 75%
% inhibition apPOL 180' (DRC-2; concentration 40; 180'): 75%
% inhibition Apo pol 5' (DRC-2; concentration 80; 5'): 13%
% inhibition Apol 40' (DRC-2; concentration 80; 40'): 57%
% inhibition ApPOL 90' (DRC-2; concentration 80; 90'): 66%
% inhibition apPOL 180' (DRC-2; concentration 80; 180'): 75%
DNA Pol (primary screen value of the 186 hits; unit not given; 90 min, 10 µM): 42
DNA Pol (primary screen value; head prints only 'DNA Pol'; 90 min, 10 µM): 42

Cc1ccccc1NC(=O)Cn1ccc2c(=O)[nH]ccc21 [Molecule 50, O=C(Cn1ccc2c1cc[nH]c2=O)Nc1ccc(cc1)C]
DNA Pol ('DNA Pol' of the 186 hits list (screen value); 90 min, 10 µM): 47
% inhibition Apo pol 10' (DRC-1; 10'; conc 2.5): 6.138%
% inhibition Apo pol 10' (DRC-1; 10'; conc 5): 25.5303%
% inhibition Apo pol 10' (DRC-1; 10'; conc 10): 50.7772%
% inhibition Apo pol 10' (DRC-1; 10'; conc 20): 84.6667%
% inhibition Apo pol 10' (DRC-1; 10'; conc 40): 88.6284%
% inhibition Apo pol 10' (DRC-1; 10'; conc 80): 86.1182%
% inhibition Apol 90' (DRC-1; 90'; conc 2.5): 0%
% inhibition Apol 90' (DRC-1; 90'; conc 5): 12.4445%
% inhibition Apol 90' (DRC-1; 90'; conc 10): 34.9563%
% inhibition Apol 90' (DRC-1; 90'; conc 20): 76.8341%
% inhibition Apol 90' (DRC-1; 90'; conc 40): 88.9511%
% inhibition Apol 90' (DRC-1; 90'; conc 80): 91.6504%
% inhibition apPOL 180' (DRC-1; 180'; conc 2.5): -5.117%
% inhibition apPOL 180' (DRC-1; 180'; conc 5): 1.53%
% inhibition apPOL 180' (DRC-1; 180'; conc 10): 18.0817%
% inhibition apPOL 180' (DRC-1; 180'; conc 20): 64.1474%
% inhibition apPOL 180' (DRC-1; 180'; conc 40): 85.8042%
% inhibition apPOL 180' (DRC-1; 180'; conc 80): 93.6476%
% inhibition Apo pol 5' (DRC-2; 5'; conc 2.5): 8%
% inhibition Apo pol 5' (DRC-2; 5'; conc 5): 16%
% inhibition Apo pol 5' (DRC-2; 5'; conc 10): 39%
% inhibition Apo pol 5' (DRC-2; 5'; conc 20): 47%
% inhibition Apo pol 5' (DRC-2; 5'; conc 40): 49%
% inhibition Apo pol 5' (DRC-2; 5'; conc 80): 42%
% inhibition Apo pol 5' (DRC-2; 5'; concentration 5): 16%
% inhibition Apol 40' (DRC-2; 40'; conc 2.5): 5%
% inhibition Apol 40' (DRC-2; 40'; conc 5): 16%
% inhibition Apol 40' (DRC-2; 40'; conc 10): 44%
% inhibition Apol 40' (DRC-2; 40'; conc 20): 64%
% inhibition Apol 40' (DRC-2; 40'; conc 40): 70%
% inhibition Apol 40' (DRC-2; 40'; conc 80): 67%
% inhibition Apol 40' (DRC-2; 40'; concentration 5): 16%
% inhibition ApPOL 90' (DRC-2; 90'; conc 2.5): 0.827%
% inhibition ApPOL 90' (DRC-2; 90'; conc 5): 13%
% inhibition ApPOL 90' (DRC-2; 90'; conc 10): 41%
% inhibition ApPOL 90' (DRC-2; 90'; conc 20): 65%
% inhibition ApPOL 90' (DRC-2; 90'; conc 40): 75%
% inhibition ApPOL 90' (DRC-2; 90'; conc 80): 73%
% inhibition apPOL 180' (DRC-2; 180'; conc 2.5): -4%
% inhibition apPOL 180' (DRC-2; 180'; conc 5): 2.7%
% inhibition apPOL 180' (DRC-2; 180'; conc 10): 29%
% inhibition apPOL 180' (DRC-2; 180'; conc 20): 60%
% inhibition apPOL 180' (DRC-2; 180'; conc 40): 78%
% inhibition apPOL 180' (DRC-2; 180'; conc 80): 78%
% inhibition apPOL 180' (DRC-2; 180'; concentration 40): 78%
% inhibition apPOL 180' (DRC-2; 180'; concentration 80): 78%
DNA Pol (primary screen value, "DNA Pol"; 90 min, 10 µM): 47
